The numbers were not newly measured in US8741342B2, “Pharmaceutical compositions comprising entacapone, levodopa, and carbidopa” (Wockhardt Research Centre, priority 2006, dated 2014), which cites them from elsewhere.

The conditions of this series: qualitative description in background section.

For the compound `C[C@@](Cc1ccc(O)c(O)c1)(NN)C(=O)O` [Carbidopa, (−)-L-(α-hydrazino-(α-methyl-β-(3,4-dihydroxybenzene)propanoic acid monohydrate], the solubility in water result is “slightly soluble in water”.
Regarding `N[C@@H](Cc1ccc(O)c(O)c1)C(=O)O` [Levodopa, (−)-L-α-amino-β-(3,4-dihydroxybenzene)propanoic acid], the solubility in water entry was “slightly soluble in water”.
